One experiment has as its target nicotinic receptors. Put plainly: Nicotinic channel receptor binding: [3H]-cystine binding to crude synaptic membranes from whole rat brain. As to conditions: 1.25 nM [3H-cystine], about 60 min, about 4° C. The protocol: Nicotinic Channel Receptor Binding Protocol:
The activity of the compounds claimed herein at the nicotinic receptor can be accomplished by the following assay.
Binding of […] to nicotinic receptors was accomplished using crude synaptic membrane preparations from whole rat brain (Pabreza et al. Molecular Pharmacol., 1990, 39:9). Washed membranes were stored at about -80° C. prior to use. Frozen aliquots were slowly thawed and resuspended in 20 volumes of buffer (containing: […] NaCl, 5 mM KCl, 2 mM MgCl2, 2 mM Tris-Cl, ph 7.4 @4° C.). After centrifuging at 20,000×g for 15 minutes, the pellets were resuspended in about 30 volumes of buffer. Homogenate (containing about 125-150 ug protein) was added to tubes containing concentrations of test compound and [^3 H-cystine] (1.25 nM) in a final volume of 500 uL. Samples were incubated for about 60 minutes at about 4° C., then rapidly filtered through GF/B filters presoaked in 0.5% polyethylimine using 3×4 mL of ice cold buffer. The filters were counted.

Experiment [1] addresses muscarinic acetylcholine receptors. Put plainly: Inhibition of specific binding of 3H-Oxotremorine-M (3H-Oxo) to rat cortex membranes. Also noted: species or system male Wistar rats. As to conditions: 1.0 nM 3H-Oxotremorine, 30 min, 25° C., pH 7.4. The text has this:
The pharmacological properties of the compounds of the invention can be illustrated by determining their capability to inhibit the specific binding of ^3 H-Oxotremorine-M (^3 H-Oxo). Birdsdall N. J. M., Hulme E. C., and Burgen A. S. V. (1980). "The Character of Muscarinic Receptors in Different Regions of the Rat Brain". Proc. Roy. Soc. London (Series B) 207,1.
^3 H-Oxo labels muscarinic receptor in the CNS (with a preference for agonist domains of the receptors). Three different sites are labeled by ^3 H-Oxo. […] Using the present experimental conditions only the high and medium affinity sites are determined.
The inhibitory effects of compounds on ^3 H-oxo binding reflects the affinity for muscarinic acetylcholine receptors.
All preparations are performed at 0-4° C. unless otherwise indicated. Fresh cortex (0.1-1 g) from male Wistar rats (150-250 g) is homogenized for 5-10 s in 10 mL […] Hepes pH: 7.4, with an Ultra-Turrax homogenizer. The homogenizer is rinsed with 10 mL of buffer and the combined suspension centrifuged for 15 min. at 40,000×g. The pellet is washed three times with buffer. In each step the pellet is homogenized as before in 2×10 mL of buffer and centrifuged for 10 min. at 40,000×g.
The final pellet is homogenized in 20 mM Hepes pH: 7.4 (100 mL per g of original tissue) and used for binding assay. Aliquots of 0.5 mL is added 25 μL of test solution and 25 μL of ^3 H-Oxotremorine (1.0 nM, final concentration) mixed and incubated for 30 min. at 25° C. Non-specific binding is determined in triplicate using arecoline (1 μg/mL, final concentration) as the test substance. After incubation samples are added 5 mL of ice-cold buffer and poured directly onto Whatman GF/C glass fiber filters under suction and immediately washed 2 times with 5 mL of ice-cold buffer. The amount of radioactivity on the filters are determined by conventional liquid scintillation counting. Specific binding is total binding minus non specific binding.
Test substances are dissolved in 10 mL water (if necessary heated on a steam-bath for less than 5 min.) at a concentration of 2.2 mg/mL. 25-75% inhibition of specific binding must be obtained before calculation of IC50. The test value will be given as IC50 (the concentration (nM) of the test substance which inhibits the specific binding of ^3 H-oxo by 50%). IC50 =(applied test substance concentration) x([…])nM where Co is specific binding in control assays and Cx is the specific binding in the test assay. (The calculations assume normal mass-action kinetics).

The target of experiment [2] is T1, muscarinic receptors (M1-site, pirenzepine sensitive site) (Rattus norvegicus, UniProt P08482).
T1 construct: from tissue; host or cells: cerebral cortex membranes of male Wistar rats
T1 sequence (P08482 1-460): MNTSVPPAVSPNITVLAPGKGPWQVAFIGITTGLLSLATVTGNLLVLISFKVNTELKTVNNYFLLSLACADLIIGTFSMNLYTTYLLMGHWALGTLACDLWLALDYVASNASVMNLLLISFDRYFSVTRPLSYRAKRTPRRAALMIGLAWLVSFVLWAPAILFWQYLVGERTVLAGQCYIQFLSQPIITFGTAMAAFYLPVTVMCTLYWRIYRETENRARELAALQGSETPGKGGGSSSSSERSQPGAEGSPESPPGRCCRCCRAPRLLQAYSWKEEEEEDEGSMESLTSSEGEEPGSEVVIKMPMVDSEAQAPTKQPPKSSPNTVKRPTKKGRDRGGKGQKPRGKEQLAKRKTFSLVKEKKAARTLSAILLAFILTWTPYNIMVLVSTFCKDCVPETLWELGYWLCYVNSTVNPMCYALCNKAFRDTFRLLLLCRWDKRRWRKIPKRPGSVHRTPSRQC
Put plainly: Inhibition of 3HPRZ (pirenzepine, [N-methyl-3H]) binding to rat cerebral cortex membranes. Details: species or system male Wistar rats. The protocol:
Furthermore the pharmacological properties of the compounds of the invention can also be illustrated by determining their capability to inhibit ^3 HPRZ (pirenzepine, [N-methyl-^3 H]) binding to rat cerebral cortex membranes.
Pirenzepine binds selectively to subtype of muscarinic receptors. Historically the type is named the M1 -site, whereas pirenzepine sensitive site would be more appropriate.
All preparations are performed at 0-4° C. unless otherwise indicated. Fresh cortex ([…]) from male Wistar rats (150-200 g) is homogenized for 5-10 s in 10 mL 20 mM Hepes pH: 7.4, with an Ultra-Turrax homogenizer. The homogenizer is rinsed with 2×10 mL of buffer and the combined suspension centrifuged for 15 min. at 40,000×g. The pellet is washed three times with buffer. In each step the pellet is homogenized as before in 3×10 mL of buffer and centrifuged for 10 min. at 40,000×g.
The final pellet is homogenized in 20 MM Hepes pH: 7.4 (100 mL per g of original tissue) and used for binding assay. Aliquots of 0.5 mL is added 20 μL of test solution and 25 μL of ^3 HPRZ (1.0 nM, final conc.), mixed and incubated for 60 min. at 20° C. Non-specific binding is determined in triplicate using atropine (1.0 μg/mL, final conc.) as the test substance. After incubation samples are added 5 mL of ice-cold buffer and poured directly onto Whatman GF/C glass fiber filters under suction and immediately washed 2 times with 5 mL of ice-cold buffer.
The amount of radioactivity on the filters are determined by conventional liquid scintillation counting. Specific binding is total binding minus non-specific binding.
Test substances are dissolved in 10 mL water, at a concentration of 0.22 mg/mL. 25-75% inhibition of specific binding must be obtained before calculation of IC50.
The test value will be given as IC50 (the concentration (nM) of the test substance which inhibits the specific binding of ^3 HPRZ by 50%). IC50 =(applied test substance concentration) x(Cx /Co -Cx)nM where Co is specific binding in control assays and Cx is the specific binding in the test assay. (The calculations assume normal mass-action kinetics).

[3] abbreviates: rat cerebral cortex, 1.0 nM 3HPRZ, 60 min, 20° C., pH 7.4, read-out: 3HPRZ IC50.

Where two headings read alike, the source gives them in different places.

The Ki is a dissociation constant, usually derived from enzyme kinetics or from competition with a known ligand. Higher therefore signals lower affinity. Molecule `CCCCSc1nccnc1OC1CN2CCC1CC2` (racemic) [Compound 6, (+/-)-3-Butylthio-2-(1-azabicyclo[2.2.2]octyl-3-oxy)pyrazine] gave a Ki on nicotinic receptors of 5490 nM. Usually IC50 stands for the concentration at which inhibition is half-maximal. With `CCCCOc1nccnc1O[C@@H]1CN2CCC[C@H]1C2` (relative stereo) [Compound 23, 3-(1-butyloxy)-2-[endo-(+,-)-6-(1-azabicyclo[3.2.1]octyloxy)]-pyrazine], the IC50 turned out to be 4.9 nM in experiment [1] and 2.7 nM in experiment [2]. With `CCCCSc1nccnc1O[C@@H]1CN2CCC[C@H]1C2` (relative stereo) [Compound 24, 3-(1-butylthio)-2-[endo-(+,-)-6-(1-azabicyclo[3.2.1]octyloxy)]-pyrazine], the values for the IC50 in experiment [1] and in experiment [2] (setting [3]) were 2.2 nM and 0.54 nM, respectively. For the molecule `CCCSc1nccnc1O[C@@H]1CN2CCC[C@H]1C2` (relative stereo) [Compound 29, (±)-endo-2-Propylthio-3-(1-azabicyclo[3.2.1]octyl-6-oxy)pyrazine], the IC50 in experiment [1] was found to be 1.7 nM; in experiment [2] (setting [3]), 0.68 nM. Take `CCCCCSc1nccnc1O[C@@H]1CN2CCC[C@H]1C2` (relative stereo) [Compound 30, (±)-endo-2-Pentylthio-3-(1-azabicyclo[3.2.1]octyl-6-oxy)pyrazine]: the IC50 came out at 4.4 nM in experiment [1] and 0.82 nM in experiment [2] (setting [3]).

As for `CC(C)CSc1nccnc1O[C@@H]1CN2CCC[C@H]1C2` (relative stereo) [Compound 31, (±)-endo-2-(2-Methylpropylthio)-3-(1-azabicyclo[3.2. 1]octyl-6-oxy)pyrazine], the IC50 came out at 3.4 nM in experiment [1] and 1.7 nM in experiment [2] (setting [3]). Turning to `CCSc1nccnc1O[C@@H]1CN2CCC[C@H]1C2` (relative stereo) [Compound 32, (±)-endo-2-Ethylthio-3-(1-azabicyclo[3.2.1]octyl-6-oxy)pyrazine], the IC50 in experiment [1] was determined as 3.9 nM; in experiment [2] (setting [3]), 4 nM. With `FC(F)(F)CSc1nccnc1O[C@@H]1CN2CCC[C@H]1C2` (relative stereo) [Compound 33, (±)-endo-2-(2,2,2,-Trifluoroethylthio)-3-(1-azabicyclo[3.2. 1]octyl-6-oxy)pyrazine], the IC50 in experiment [1] was determined as 1.5 nM; in experiment [2] (setting [3]), 0.7 nM. As to `C/C=C/CSc1nccnc1O[C@@H]1CN2CCC[C@H]1C2` (relative stereo) [Compound 34, (±)-endo-2-(trans-2-Butenylthio)-3-(1-azabicyclo[3.2. 1]octyl-6-oxy)pyrazine], the IC50 in experiment [1] came out at 2 nM; in experiment [2] (setting [3]) it was 0.66 nM. On to `FC(F)(F)CCCSc1nccnc1O[C@@H]1CN2CCC[C@H]1C2` (relative stereo) [Compound 35, (±)-endo-2-(4,4,4-Trifluorobutylthio)-3-(1-azabicyclo[3.2. 1]octyl-6-oxy)pyrazine], for which the IC50 in experiment [1] is 3.2 nM; in experiment [2] (setting [3]) it was 0.54 nM. As to `C=CCSc1nccnc1O[C@@H]1CN2CCC[C@H]1C2` (relative stereo) [Compound 36, (±)-endo-2-(2-propenylthio)-3-(1-azabicyclo[3.2.1]octyl-6-oxy)pyrazine], the results for the IC50 in experiment [1] and in experiment [2] (setting [3]) were 0.34 nM and 5.8 nM, respectively. For the molecule `CC(C)CCSc1nccnc1O[C@@H]1CN2CCC[C@H]1C2` (relative stereo) [Compound 37, (±)-endo-2-(3-Methylbutylthio)-3-(1-azabicyclo[3.2. 1]octyl-6-oxy)pyrazine], the IC50 in experiment [1] turned out to be 1.3 nM; in experiment [2] (setting [3]) it was 0.76 nM. For `FC(F)(F)Oc1ccc(CSc2nccnc2O[C@@H]2CN3CCC[C@H]2C3)cc1` (relative stereo) [Compound 38, (±)-endo-2-(4-Trifluoromethoxybenzylthio)-3-(1-azabicyclo[3.2. 1]octyl-6-oxy)pyrazine], in that order: 6.2 nM and 3.3 nM. The corresponding values for `CCCSc1cncc(O[C@@H]2CN3CCC[C@H]2C3)n1` (relative stereo) [Compound 39, (±)-endo-2-Propylthio-6-(1-azabicyclo[3.2.1]octyl-6-oxy)pyrazine] are 10 nM and 80 nM. The corresponding values for `FC(F)(F)CSc1cncc(O[C@@H]2CN3CCC[C@H]2C3)n1` (relative stereo) [Compound 40, (±)-endo-2-(2.2.2-Trifluoroethylthio)-6-(1-azabicyclo[3.2. 1]octyl-6-oxy)pyrazine] are 60 nM and 17 nM. Regarding `COCCSc1nccnc1O[C@@H]1CN2CCC[C@H]1C2` (relative stereo) [Compound 41, (±)-endo-2-(2-Methoxyethylthio)-3-(1-azabicyclo[3.2. 1]octyl-6-oxy)pyrazine], the IC50 in experiment [1] was 3.2 nM; in experiment [2] (setting [3]), 1.6 nM. Turning to `C(=Cc1ccccc1)CSc1nccnc1O[C@@H]1CN2CCC[C@H]1C2` (relative stereo) [Compound 42, (±)-endo-2-(3-Phenyl-2-propenylthio)-3-(1-azabicyclo[3.2. 1]octyl-6-oxy)pyrazine], the figures for the IC50 in experiment [1] and in experiment [2] (setting [3]) were 9.1 nM and 4.8 nM, respectively.

On to `CC(C)=CCCSc1nccnc1O[C@@H]1CN2CCC[C@H]1C2` (relative stereo) [Compound 43, (±)-endo-2-(4-Methyl-3-pentenylthio)-3-(1-azabicyclo[3.2. 1]octyl-6-oxy)pyrazine], for which the IC50 was 8.1 nM in experiment [1] and 2.2 nM in experiment [2] (setting [3]).
